Results reported in patent US20260209294A1, “USE OF RECOMBINANT PROTEIN IN PREPARING DRUG FOR INHIBITING ANEURYSM” (HUAZHONG UNIVERSITY OF SCIENCE AND TECHNOLOGY, priority 2022, published 2026).

Key:
VSMC cells = assay: VSMC incubated in vitro with TGF-β1 or pirfenidone (PFD): Western blot, ELISA, RT-PCR; type: cell-based; conditions: for level of AGGF1: Western blot, treatment 2 days and 4 days
Experimental: The VSMCs are starved for 12 hours prior to stimulation with TGF-β1. […] Normalized to β-actin. *, P<0.05; **, P<0.01; ***, P<0.001; n≥4/group for the study.
In FIG. 11, we used VSMC in vitro incubated with TGF-β1 and pirfenidone (PFD). […] In FIG. 12, we used Aggf1 systemic knockout mice for experiments.

[1] = tested on: TAC-induced carotid artery dilation, remodeling, and inflammation; assay: Pirfenidone in TAC model in WT and Aggf1+/- mice; type: in vivo; conditions: for level of AGGF1 in the RCA / level of p-ERK1/2 in the RCA / level of p-Smad3 in the RCA: Western blot; for expansion of the right carotid artery / ratio of the flow velocity between right/left carotid: 3 weeks after TAC; for right carotid artery inflammation (MCP1 and CD68) / right carotid artery vascular remodeling (H&E staining, Sirius red and αSMA): after TAC
Source text: The bar graphs below show the intimal thickness (1st graph), the adventitia thickness (2nd graph), the total carotid artery wall thickness (3rd graph), the medial cell density (4th graph), and the adventitia cell density (5th graph). […] The bar graphs on the right show the percentage of the positive area for the respective immunostaining quantification. […] The GAPDH serves as a loading control. *, P<0.05; **, P<0.01; ***, P<0.001; n=5/group for mouse studies, other sample sizes n=4/group. In FIG. 11, we used VSMC in vitro incubated with TGF-β1 and pirfenidone (PFD). […] In FIG. 12, we used Aggf1 systemic knockout mice for experiments.

[2] = Aggf1 heterozygous knockout mice (Aggf1+/-)

Row | Compound | mRNA levels of Tgfb1 and Tgfb2 (VSMC cells; RT-PCR, after 2 days) | synthesis of the mature TGF-β1 (VSMC cells; Western blot 2 and 4 days, ELISA 2 days) | level of AGGF1 (VSMC cells) | level of AGGF1 in the RCA ([1]; Aggf1+/- mice after TAC) | level of p-ERK1/2 in the RCA ([1]; Aggf1+/- mice after TAC) | level of p-Smad3 in the RCA ([1]; Aggf1+/- mice after TAC) | expansion of the right carotid artery [1, 2] | ratio of the flow velocity between right/left carotid [1, 2] | right carotid artery inflammation (MCP1 and CD68) [1, 2] | right carotid artery vascular remodeling (H&E staining, Sirius red and αSMA) [1, 2] | level of AGGF1 in the RCA ([1]; WT mice after TAC) | level of p-ERK1/2 in the RCA ([1]; WT mice after TAC) | level of p-Smad3 in the RCA ([1]; WT mice after TAC) | expansion of the right carotid artery ([1]; WT mice) | ratio of the flow velocity between right/left carotid ([1]; WT mice) | right carotid artery inflammation (MCP1 and CD68) ([1]; WT mice) | right carotid artery vascular remodeling (H&E staining, Sirius red and αSMA) ([1]; WT mice)
1 | Cc1ccc(=O)n(-c2ccccc2)c1 [PFD, pirfenidone] | no effect | inhibited | increased | did not have this effect | did not have this effect | did not have this effect | did not possess such effects | did not possess such effects | did not possess such effects | did not possess such effects | significantly increase | reduce | reduce | significantly reduce | significantly reduce | significantly reduce | significantly reduce
2 | TGF-β1: TGF-β1 used to stimulate VSMC cells in vitro | – | – | inhibit | – | – | – | – | – | – | – | – | – | – | – | – | – | –
